According to US5104858A, “Sensitizing multidrug resistant cells to antitumor agents” (priority 1988, dated 1992):
“Also recorded” adds a separate entry of the source. Like-named read-outs stand apart in the source and are kept apart here. Values belong to the compound of their own block, whether it stands above or below them.

Key:
MCF-7/DOX cells [1] = experiment: Inhibition of MCF-7/DOX cell growth, microtiter methylene blue staining assay, 48 h; format: cell-based, human
Calmodulin [2] = molecular target: T1, Calmodulin (Bos taurus, UniProt P62157); experiment: biochemical
MCF-7/DOX cells [3] = experiment: Antagonism of multidrug resistance (sensitization to doxorubicin) in MCF-7/DOX cells, MDR Ratio; format: cell-based, human; settings: for MDR Ratio (IC50 doxorubicin alone / IC50 doxorubicin in presence of modifier): 48 h
P-glycoprotein = settings: MDR Chinese hamster lung cells, Center; cited from earlier work
MCF-7/DOX cells [4] = settings: Fine et al; cited from earlier work
[5] = tested on: clinically resistant cancer; settings: with doxorubicin or bleomycin, Phase I, cited from earlier work
Calmodulin [6] = molecular target: T1, Calmodulin; settings: Norman and Drummond; cited from earlier work
MCF-7/DOX cells [7] = experiment: Cellular accumulation of cis and trans-flupenthixol in MCF-7/DOX cells; format: cell-based, human; settings: for cell associated drug concentration at 3 μM / cell associated drug concentration at 10 μM / cell associated drug concentration at 100 μM: 3 hour incubation; for cellular accumulation of thioxanthene isomers, in words: MDR cells
Experimental: Cells were washed three times in cold PBS by centrifugation at 100× g for 10 minutes, resuspended in 2 ml of 0.3N HCl in 50% ethanol, and sonicated for 10 pulses at 200 ws with a Tekmar cell sonicator (Tekmar, Cincinnati, Ohio). Following centrifugation at 1000× g for 30 minutes, the supernatant was removed and assayed for drug content with a Perkin-Elmer 512 spectrofluorometer (Norwalk, Conn.). Optimal excitation and emission wavelengths for both thioxanthene isomers were determined to be 320 nm and 400 nm, respectively.

[8] = Norman and Drummond; cited from earlier work
acute schizophrenia = settings: humans; cited from earlier work
[9] = tested on: KC/ADR10 human breast cells; settings: Ahn et al; cited from earlier work
L1210/DOX cells = settings: Ganapathi and Grabowski; cited from earlier work
MCF-7/DOX cells [10] = experiment: Cellular accumulation of doxorubicin in MDR MCF-7/DOX cells; format: cell-based, human; settings: 3 hours, 15 μM doxorubicin
[11] = Homo sapiens, MCF7-DOX, 48 h, MCF-7/DOX cells, 48 h, structurally related compounds; read-out: Cell Growth Inhibition IC50 (Table 5)
[12] = Homo sapiens, MCF7-DOX, 48 h, MCF-7/DOX cells, 48 h, drug alone; read-out: IC50 for cell growth inhibition
[13] = Homo sapiens, MCF7-DOX, 48 h; read-out: IC50 for cell growth inhibition
[14] = Homo sapiens, MCF7-DOX, 48 h, read-out: IC50 for cell growth inhibition
[15] = MCF-7/DOX cells, 48 h, drug alone; read-out: IC50 for cell growth inhibition
[16] = Homo sapiens, MCF7-DOX, 48 h, read-out: concentration which alone produces 10% inhibition of cell growth
[17] = Homo sapiens, MCF7-DOX, 48 h; read-out: Cell Growth Inhibition IC50 (Table 5)
[18] = read-out: IC50 for cell growth inhibition

Compound: CN(C)CCCN1c2ccccc2CCc2ccccc21 [Imipramine]
IC50 (MCF-7/DOX cells [1]; [11]): 19 µM
IC50 (Calmodulin [2]): 125 µM

IC50 (MCF-7/DOX cells [1]; [12]): 20 µM
IC50 (Calmodulin [2]): 42 µM
Compound: CSc1ccc2c(c1)N(CCCN(C)C)c1ccccc1S2 [Thiomethylpromazine]
MDR Ratio (IC50 doxorubicin alone / IC50 doxorubicin in presence of modifier) (MCF-7/DOX cells [3]): 1.5

Compound: OCCN1CCN(CCCN2c3ccccc3Sc3ccc(Cl)cc32)CC1 [Perphenazine]
IC50 (MCF-7/DOX cells [1]; [13]): 32 µM

IC50 (MCF-7/DOX cells [1]; [12]): 7 µM
IC50 (Calmodulin [2]): 40 µM
Compound: CN(C)CCCCN1c2ccccc2Sc2ccc(Cl)cc21 [2-Chloro-10-[4-(dimethylamino)butyl] phenothiazine]
MDR Ratio (IC50 doxorubicin alone / IC50 doxorubicin in presence of modifier) (MCF-7/DOX cells [3]): 2.0

Compound: CN(C)CCCN1c2ccccc2[S+]([O-])c2ccc(Cl)cc21 (stereo not shown) [Chlorpromazine Sulfoxide]
inhibition of cell growth, comparison in words (MCF-7/DOX cells [1]): lost most of its antiproliferative effect
IC50 (MCF-7/DOX cells [1]; [14]): 500 µM
IC50 (Calmodulin [2]): 2200 µM
anti-MDR activity, comparison in words (MCF-7/DOX cells [3]): retained its effect against MDR

IC50 (MCF-7/DOX cells [1]; [12]): 8 to 12 µM
IC50 (MCF-7/DOX cells [1]; [15]): 11 µM
IC50 (Calmodulin [2]): 38 µM
Compound: NCCCN1c2ccccc2Sc2ccc(Cl)cc21 [Didesmethylchlorpromazine]
MDR Ratio (IC50 doxorubicin alone / IC50 doxorubicin in presence of modifier) (MCF-7/DOX cells [3]): 1.1

Compound: CN1CCN(CCCN2c3ccccc3Sc3ccc(C(F)(F)F)cc32)CC1 [Trifluoperazine]
IC50 (MCF-7/DOX cells [1]; [13]): 19 µM
phosphorylation of P-glycoprotein, doxorubicin accumulation and cytotoxicity (P-glycoprotein): increased phosphorylation of this protein in MDR Chinese hamster lung cells and enhanced doxorubicin accumulation and cytotoxicity
reversal of phorbol ester effects on anthracycline resistance (MCF-7/DOX cells [4]): reversed
dose limiting side effects in combination trials [5]: Extrapyramidal side effects have proven to be dose limiting
dose limiting side effects in combination trials ([5]; listed as trifluperazine): extrapyramidal side effects

IC50 (MCF-7/DOX cells [1]; [12]): 50 µM
IC50 (Calmodulin [2]): 68 µM
Compound: CN(C)CCCN1c2ccc(O)cc2Sc2ccc(Cl)cc21 [7-Hydroxychlorpromazine]
relative potency in inhibiting cell growth (fold less potent) (MCF-7/DOX cells [1]; versus chlorpromazine): 6 fold
MDR Ratio (IC50 doxorubicin alone / IC50 doxorubicin in presence of modifier) (MCF-7/DOX cells [3]): 1.0

IC50 (MCF-7/DOX cells [1]; [12]): 15 µM
IC50 (Calmodulin [2]): 25 µM
Compound: CN(C)CCCN1c2ccccc2Sc2c(Cl)cccc21 [4-Chlorpromazine]
MDR Ratio (IC50 doxorubicin alone / IC50 doxorubicin in presence of modifier) (MCF-7/DOX cells [3]): 1.4

Compound: OCCN1CCN(CC/C=C2\c3ccccc3Sc3ccc(C(F)(F)F)cc32)CC1 [trans-Flupenthixol]
IC50 (MCF-7/DOX cells [1]; [14]): 25 µM
IC10 (MCF-7/DOX cells [1]; [16]): 6 µM
IC50 (MCF-7/DOX cells [1]; [17]): 25 µM
anti-CaM effect of thioxanthene stereoisomers (Calmodulin [6]): no difference between cis and trans-flupenthixol
cell associated drug concentration at 3 μM (MCF-7/DOX cells [7]): 420 ± 80 pmol/10^6 cells
cell associated drug concentration at 10 μM (MCF-7/DOX cells [7]): 1000 ± 250 pmol/10^6 cells
cell associated drug concentration at 100 μM (MCF-7/DOX cells [7]): 6000 ± 330 pmol/10^6 cells
cellular accumulation of thioxanthene isomers, in words (MCF-7/DOX cells [7]): equivalent, dose-dependent fashion
octanol:buffer partition coefficient (log P) [8]: 4.25
extrapyramidal side effects / toxicity of flupenthixol isomers (acute schizophrenia): lacks these side effects; also recorded: far less toxic; also recorded: apparent lack of extrapyramidal side effects

IC50 (MCF-7/DOX cells [1]; [12]): 400 µM
IC50 (Calmodulin [2]): 183 µM
Compound: CN(C)CCCN1c2cc(O)ccc2Sc2cc(O)c(Cl)cc21 [3,8-Dihydroxychlorpromazine]
MDR Ratio (IC50 doxorubicin alone / IC50 doxorubicin in presence of modifier) (MCF-7/DOX cells [3]): 0.9

IC50 (MCF-7/DOX cells [1]; [11]): 3 µM
IC50 (Calmodulin [2]): 42 µM
Compound: CCN(CC)CCCC(C)Nc1c2ccc(Cl)cc2nc2ccc(OC)cc12 (stereo not shown) [Quinacrine]
MDR Ratio (IC50 doxorubicin alone / IC50 doxorubicin in presence of modifier) (MCF-7/DOX cells [3]): 1.3

Compound: CN(C)CCCN1c2ccccc2Sc2ccc(Cl)cc21 [Chlorpromazine]
IC50 (MCF-7/DOX cells [1]; [13]): 8 µM
IC50 (MCF-7/DOX cells [1]; [18]): 8 to 12 µM
sensitization of MCF-7/DOX cells to doxorubicin (MCF-7/DOX cells [3]): 60%
octanol:buffer partition coefficient (log P) [8]: 4.04

Compound: OCCN1CCN(CC/C=C2/c3ccccc3Sc3ccc(C(F)(F)F)cc32)CC1 [cis-Flupenthixol]
IC10 (MCF-7/DOX cells [1]; [16]): 3 µM
IC50 (MCF-7/DOX cells [1]; [17]): 24 µM
anti-CaM effect of thioxanthene stereoisomers (Calmodulin [6]): no difference between cis and trans-flupenthixol
cell associated drug concentration at 3 μM (MCF-7/DOX cells [7]): 830 ± 80 pmol/10^6 cells
cell associated drug concentration at 10 μM (MCF-7/DOX cells [7]): 1420 ± 250 pmol/10^6 cells
cell associated drug concentration at 100 μM (MCF-7/DOX cells [7]): 7000 ± 330 pmol/10^6 cells
cellular accumulation of thioxanthene isomers, in words (MCF-7/DOX cells [7]): equivalent, dose-dependent fashion
octanol:buffer partition coefficient (log P) [8]: 4.25

IC50 (MCF-7/DOX cells [1]; [12]): 8 to 12 µM
IC50 (MCF-7/DOX cells [1]; [15]): 12 µM
IC50 (Calmodulin [2]): 28 µM
Compound: CCN(CC)CCCN1c2ccccc2Sc2ccc(Cl)cc21 [Chlorproethazine]
MDR Ratio (IC50 doxorubicin alone / IC50 doxorubicin in presence of modifier) (MCF-7/DOX cells [3]): 2.2

IC50 (MCF-7/DOX cells [1]; [12]): 27 µM
IC50 (Calmodulin [2]): 60 µM
Compound: CN(C)CCN1c2ccccc2Sc2ccc(Cl)cc21 [2-Chloro-10-[2-(dimethylamino)ethyl] phenothiazine]
MDR Ratio (IC50 doxorubicin alone / IC50 doxorubicin in presence of modifier) (MCF-7/DOX cells [3]): 1.5

Compound: CN(C)CCCN1c2ccccc2Sc2ccc(C(F)(F)F)cc21 [Trifluopromazine]
IC50 (MCF-7/DOX cells [1]; [13]): 16 µM
IC50 (MCF-7/DOX cells [1]; [18]): 14 µM

Compound: CC1CNCCN1S(=O)(=O)c1cccc2cnccc12 (stereo not shown) [H-7, 1-(5-isoquinolinylsulfonyl)-2-methylpiperazine]
sensitization of KC/ADR10 human breast cells [9]: does sensitize KC/ADR10 human breast cells
sensitization of L1210/DOX cells (L1210/DOX cells): failed to sensitize L1210/DOX cells

Compound: CC(CN1c2ccccc2Sc2ccccc21)N(C)C (stereo not shown) [Promethazine]
inhibition of cell growth, comparison in words (MCF-7/DOX cells [1]): less potent inhibitor of cell growth than promazine
IC50 (MCF-7/DOX cells [1]; [13]): 29 µM

Compound: COc1cccc2c1C(=O)c1c(O)c3c(c(O)c1C2=O)C[C@@](O)(C(=O)CO)C[C@@H]3O[C@H]1C[C@H](N)[C@H](O)[C@H](C)O1 [Doxorubicin]
IC50 (MCF-7/DOX cells [1]; [14]): 12 µM
resistance to doxorubicin of MCF-7/DOX cells relative to parental cell line (MCF-7/DOX cells [1]; human, mcf-7/dox cells): approximately 200 fold
doxorubicin accumulation, fold less in MCF-7/DOX than in sensitive cell line (MCF-7/DOX cells [10]): approximately 10 fold

Compound: O=c1[nH]c2ccccc2n1C1CCN(CCCC(c2ccc(F)cc2)c2ccc(F)cc2)CC1 [Pimozide]
IC50 (Calmodulin [2]): 7 µM
octanol:buffer partition coefficient (log P) [8]: 4.88

IC50 (MCF-7/DOX cells [1]; [12]): 8 to 12 µM
IC50 (MCF-7/DOX cells [1]; MCF-7/DOX cells, 48 h, drug alone; listed as desmethylchlorpromazine; read-out: IC50 for cell growth inhibition): 8 µM
IC50 (MCF-7/DOX cells [1]; [15]): 8 µM
IC50 (Calmodulin [2]): 45 µM
Compound: CNCCCN1c2ccccc2Sc2ccc(Cl)cc21 [Desmethylchlorpromazine]
MDR Ratio (IC50 doxorubicin alone / IC50 doxorubicin in presence of modifier) (MCF-7/DOX cells [3]): 1.2

IC50 (MCF-7/DOX cells [1]; [11]): 3 µM
IC50 (Calmodulin [2]): 3 µM
Compound: OC1(c2ccc(Cl)c(C(F)(F)F)c2)CCN(CCCC(c2ccc(F)cc2)c2ccc(F)cc2)CC1 [Penfluridol]
MDR Ratio (IC50 doxorubicin alone / IC50 doxorubicin in presence of modifier) (MCF-7/DOX cells [3]): 2.0

IC50 (MCF-7/DOX cells [1]; [12]): 10 µM
IC50 (Calmodulin [2]): 24 µM
Compound: CN(C)CCCN1c2ccccc2Sc2cc(Cl)ccc21 [3-Chlorpromazine]
MDR Ratio (IC50 doxorubicin alone / IC50 doxorubicin in presence of modifier) (MCF-7/DOX cells [3]): 1.3

Compound: CN(C)CCCN1c2ccccc2Sc2ccccc21 [Promazine]
IC50 (MCF-7/DOX cells [1]; [12]): 26 µM
IC50 (MCF-7/DOX cells [1]; [15]): 27 µM
IC50 (Calmodulin [2]): 110 µM
MDR Ratio (IC50 doxorubicin alone / IC50 doxorubicin in presence of modifier) (MCF-7/DOX cells [3]): 1.2
sensitization of MCF-7/DOX cells to doxorubicin (MCF-7/DOX cells [3]; modifier at 10% growth inhibitory concentration): 20%

IC50 (MCF-7/DOX cells [1]; [12]): 21 µM
IC50 (Calmodulin [2]): 74 µM
Compound: CN(C)CCCN1c2ccccc2Sc2cccc(Cl)c21 [1-Chlorpromazine]
MDR Ratio (IC50 doxorubicin alone / IC50 doxorubicin in presence of modifier) (MCF-7/DOX cells [3]): 1.3

IC50 (MCF-7/DOX cells [1]; [12]): 63 µM
IC50 (Calmodulin [2]): 82 µM
Compound: CN(C)CCCN1c2cc(Cl)ccc2Sc2cc(O)c(O)cc21 [7,8-Dihydroxychlorpromazine]
MDR Ratio (IC50 doxorubicin alone / IC50 doxorubicin in presence of modifier) (MCF-7/DOX cells [3]): 0.8
